These molecules were tested on HIV-IIIb (assay: Test A: Antiviral Assays in MT4 Cells). Conditions: Human immunodeficiency virus 1, IIIB, MT4, 120 h, MT-4 cells infected with HIV-IIIb (0.004 m.o.i.), 5 days of incubation, CellTiter-Glo chemiluminescence readout; read-out: EC50.
Format: cell-based
How it was run: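 MT-4 cells pre-infected with HIV-IIIb (0.004 m.o.i.) at 37 °C, then plated with 3-fold serially diluted compound (10 concentrations, quadruplicate, RPMI 1640/10% FBS). After 5 days at 37 °C, cell viability read by CellTiter-Glo chemiluminescence; mock-infected cells run in parallel.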

First: Cc1c(C(OC(C)(C)C)C(=O)O)c(-c2ccc(Cl)cc2)c2ccccc2c1CCCN(C)C (centres unmarked) [Compound 132, 2-tert-Butoxy-2-(1-(4-chlorophenyl)-4-(3-(dimethylamino)propyl)-3-methylnaphthalen-2-yl)acetic acid]
Second: Cc1cc2c(Cl)cccc2c(-c2ccc(Cl)cc2)c1C(OC(C)(C)C)C(=O)O (centres unmarked) [Compound 45, 2-tert-Butoxy-2-(5-chloro-1-(4-chlorophenyl)-3-methylnaphthalen-2-yl)acetic acid]
The EC50 of the first is 15-fold lower: 118 nM for the first, 1800 nM for the second.

First: Cc1cc2c(-c3ccc(Cl)cc3)cccc2c(-c2ccc(Cl)cc2)c1C(OC(C)(C)C)C(=O)O (centres unmarked) [Compound 38, 2-(1,5-Bis(4-chlorophenyl)-3-methylnaphthalen-2-yl)-2-tert-butoxyacetic acid]
Second: Cc1cc2ccc(CCC3(O)CCCC3)cc2c(-c2ccc(Cl)cc2)c1C(OC(C)(C)C)C(=O)O (centres unmarked) [Compound 91, 2-tert-butoxy-2-(1-(4-chlorophenyl)-7-(2-(1-hydroxycyclopentyl)ethyl)-3-methylnaphthalen-2-yl)acetic acid]
The EC50 of the first is 14-fold higher: 3400 nM for the first, 250 nM for the second.

Going from `Cc1c([C@H](OC(C)(C)C)C(=O)O)c(-c2ccc3c4c(ccnc24)CCO3)c2ccccc2c1C(N)=O` [Compound 183, (S)-2-tert-butoxy-2-((R)-4-carbamoyl-1-(2,3-dihydropyrano[4,3,2-de]quinolin-7-yl)-3-methylnaphthalen-2-yl)acetic acid] to `Cc1cc2cc(Cl)ccc2c(-c2ccc3c4c(ccnc24)CCO3)c1[C@@H](OC(C)(C)C)C(=O)O` (atropisomer, axis not shown) [Compound 177], the EC50 rises from 351 nM to 37000 nM (110-fold). The first is the more potent here.

First: Cc1cc2ccc(C#CC3(N)CCCCC3)cc2c(-c2ccc(Cl)cc2)c1[C@H](OC(C)(C)C)C(=O)O [Compound 100, (S)-2-(7-((1-Aminocyclohexyl)ethynyl)-1-(4-chlorophenyl)-3-methylnaphthalen-2-yl)-2-tert-butoxyacetic acid]
Second: CC(C)(C)O[C@H](C(=O)O)c1c(CN2CCOCC2)cc2ccccc2c1-c1ccc(Cl)cc1 [Compound 27, (S)-2-tert-Butoxy-2-(1-(4-chlorophenyl)-3-(morpholinomethyl)naphthalen-2-yl)acetic acid]
The EC50 of the first is 150-fold lower: 23 nM for the first, 3500 nM for the second. The first is the more potent here.

Compared with `Cc1cc2ccccc2c(C2=CC(C)(C)CCC2=O)c1[C@H](OC(C)(C)C)C(=O)O` [Compound 11, (S)-2-tert-Butoxy-2-(1-(3,3-dimethyl-6-oxocyclohex-1-enyl)-3-methylnaphthalen-2-yl)acetic acid], `Cc1cc2ccccc2c(-c2ccc3c4c2NCCC4CCO3)c1[C@H](OC(C)(C)C)C(=O)O` (stereo partly drawn) [Compound 20, (2S)-2-tert-Butoxy-2-(1-((7R)-2,3,3a,4,5,6-hexahydropyrano[4,3,2de]quinolin-7-yl)-3-methylnaphthalen-2-yl)acetic acid] is 96-fold lower in EC50: 8900 nM for the first, 93 nM for the second. The second is the more potent here.

For `Cc1cc2cc(Cl)c(F)cc2c(-c2ccc3c4c(ccnc24)CCO3)c1[C@H](OC(C)(C)C)C(=O)O` (atropisomer, axis not shown) [Compound 171], the EC50 was 36000 nM.

Same assay, conditions: MT-4 cells infected with HIV-IIIb (0.004 m.o.i.), 5 days of incubation, CellTiter-Glo chemiluminescence readout; read-out: EC50

Going from `Cc1cc2c(C#N)cc(F)cc2c(-c2ccc3c4c(ccnc24)CCO3)c1[C@H](OC(C)(C)C)C(=O)O` [Compound 113A, (S)-2-tert-Butoxy-2-((R)-5-cyano-1-(2,3-dihydropyrano[4,3,2-de]quinolin-7-yl)-7-fluoro-3-methylnaphthalen-2-yl)acetic acid] to `Cc1cc2cc(F)ccc2c(-c2ccc3c4c(ccnc24)CCO3)c1C(OC(C)(C)C)C(=O)O` [Compound 43, 2-tert-butoxy-2-((R)-1-(2,3-dihydropyrano[4,3,2-de]quinolin-7-yl)-6-fluoro-3-methylnaphthalen-2-yl)acetic acid], the EC50 falls from 910 nM to 22 nM (41-fold). The second is the more potent here.

`Cc1cc2ccccc2c(-c2cccc3cccnc23)c1[C@H](OC(C)(C)C)C(=O)O` [Compound 4K, (S)-2-tert-butoxy-2-((R)-3-methyl-1-(quinolin-8-yl)naphthalen-2-yl)acetic acid] showed an EC50 of 301 nM.
